As usually defined, the AC50 is the concentration giving half of the maximal activity seen.

The target of one assay is Acetylcholinesterase (Homo sapiens, UniProt P22303). It counts as functional.
Assay [1] has as its target T1, Alpha-2A adrenergic receptor (Homo sapiens, UniProt P08913).
T1 sequence (P08913 whole entry): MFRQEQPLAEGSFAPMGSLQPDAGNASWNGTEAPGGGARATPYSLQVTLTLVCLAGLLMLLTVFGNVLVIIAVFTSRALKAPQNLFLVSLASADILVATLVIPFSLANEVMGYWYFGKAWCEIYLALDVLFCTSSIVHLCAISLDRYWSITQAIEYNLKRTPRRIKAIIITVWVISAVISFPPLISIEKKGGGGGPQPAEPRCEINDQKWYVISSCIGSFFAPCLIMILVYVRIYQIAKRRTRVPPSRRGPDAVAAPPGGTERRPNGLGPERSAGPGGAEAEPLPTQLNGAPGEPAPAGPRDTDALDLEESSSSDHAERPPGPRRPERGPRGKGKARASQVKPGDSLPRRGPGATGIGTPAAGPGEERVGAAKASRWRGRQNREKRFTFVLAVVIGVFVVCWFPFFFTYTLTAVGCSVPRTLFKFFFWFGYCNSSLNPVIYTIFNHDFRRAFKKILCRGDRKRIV

Assay [2] addresses T2, Muscarinic acetylcholine receptor M2 (Homo sapiens, UniProt P08172).
T2 sequence (P08172 whole entry): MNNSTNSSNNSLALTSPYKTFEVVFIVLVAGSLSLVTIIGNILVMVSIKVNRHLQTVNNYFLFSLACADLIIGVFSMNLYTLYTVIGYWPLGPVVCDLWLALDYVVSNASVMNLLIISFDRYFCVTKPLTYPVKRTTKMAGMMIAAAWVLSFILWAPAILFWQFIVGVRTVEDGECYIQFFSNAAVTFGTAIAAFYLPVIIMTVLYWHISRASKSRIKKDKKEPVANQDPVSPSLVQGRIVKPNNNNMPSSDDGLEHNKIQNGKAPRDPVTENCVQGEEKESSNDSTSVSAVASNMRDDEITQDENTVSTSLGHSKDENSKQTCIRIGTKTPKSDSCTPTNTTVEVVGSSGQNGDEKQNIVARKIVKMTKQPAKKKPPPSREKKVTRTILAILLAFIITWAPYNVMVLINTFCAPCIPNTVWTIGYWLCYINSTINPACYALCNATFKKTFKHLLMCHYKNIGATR

The target of assay [3] is Voltage-gated inwardly rectifying potassium channel KCNH2 (Homo sapiens, UniProt Q12809). It counts as functional. As to conditions: read-out: AC50.
Voltage-gated inwardly rectifying potassium channel KCNH2, sequence (Q12809 whole entry): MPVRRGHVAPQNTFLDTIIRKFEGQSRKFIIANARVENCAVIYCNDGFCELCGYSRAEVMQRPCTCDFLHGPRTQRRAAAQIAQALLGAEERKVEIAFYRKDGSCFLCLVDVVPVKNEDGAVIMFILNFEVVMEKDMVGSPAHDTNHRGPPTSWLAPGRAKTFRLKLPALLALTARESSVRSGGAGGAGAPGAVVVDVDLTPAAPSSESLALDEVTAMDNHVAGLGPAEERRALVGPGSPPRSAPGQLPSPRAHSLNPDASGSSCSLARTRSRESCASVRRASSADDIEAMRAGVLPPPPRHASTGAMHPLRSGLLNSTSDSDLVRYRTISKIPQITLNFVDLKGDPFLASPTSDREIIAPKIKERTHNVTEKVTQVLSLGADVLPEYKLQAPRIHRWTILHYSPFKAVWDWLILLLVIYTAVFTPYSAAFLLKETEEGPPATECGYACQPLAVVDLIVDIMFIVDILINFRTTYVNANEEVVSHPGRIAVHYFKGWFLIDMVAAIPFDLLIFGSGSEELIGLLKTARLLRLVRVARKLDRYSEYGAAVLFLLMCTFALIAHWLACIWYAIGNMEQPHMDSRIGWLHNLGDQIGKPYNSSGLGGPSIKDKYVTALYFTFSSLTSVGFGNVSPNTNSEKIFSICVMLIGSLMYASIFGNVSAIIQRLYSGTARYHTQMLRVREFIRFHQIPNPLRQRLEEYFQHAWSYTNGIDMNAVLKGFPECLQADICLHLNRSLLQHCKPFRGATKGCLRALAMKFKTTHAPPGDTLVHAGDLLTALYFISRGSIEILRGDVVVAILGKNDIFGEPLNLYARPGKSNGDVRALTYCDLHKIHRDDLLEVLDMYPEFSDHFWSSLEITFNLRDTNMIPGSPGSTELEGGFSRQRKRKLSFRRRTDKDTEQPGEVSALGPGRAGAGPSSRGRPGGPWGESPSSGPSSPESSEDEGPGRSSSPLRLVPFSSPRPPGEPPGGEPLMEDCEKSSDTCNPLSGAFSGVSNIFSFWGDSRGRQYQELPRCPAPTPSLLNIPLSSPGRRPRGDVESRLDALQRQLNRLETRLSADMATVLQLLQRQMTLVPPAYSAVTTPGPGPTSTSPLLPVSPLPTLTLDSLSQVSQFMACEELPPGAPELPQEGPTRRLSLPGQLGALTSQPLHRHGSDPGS
In assay [4] the target is cGMP-inhibited 3',5'-cyclic phosphodiesterase 3A (Homo sapiens, UniProt Q14432). It counts as functional.
cGMP-inhibited 3',5'-cyclic phosphodiesterase 3A, sequence (Q14432 whole entry): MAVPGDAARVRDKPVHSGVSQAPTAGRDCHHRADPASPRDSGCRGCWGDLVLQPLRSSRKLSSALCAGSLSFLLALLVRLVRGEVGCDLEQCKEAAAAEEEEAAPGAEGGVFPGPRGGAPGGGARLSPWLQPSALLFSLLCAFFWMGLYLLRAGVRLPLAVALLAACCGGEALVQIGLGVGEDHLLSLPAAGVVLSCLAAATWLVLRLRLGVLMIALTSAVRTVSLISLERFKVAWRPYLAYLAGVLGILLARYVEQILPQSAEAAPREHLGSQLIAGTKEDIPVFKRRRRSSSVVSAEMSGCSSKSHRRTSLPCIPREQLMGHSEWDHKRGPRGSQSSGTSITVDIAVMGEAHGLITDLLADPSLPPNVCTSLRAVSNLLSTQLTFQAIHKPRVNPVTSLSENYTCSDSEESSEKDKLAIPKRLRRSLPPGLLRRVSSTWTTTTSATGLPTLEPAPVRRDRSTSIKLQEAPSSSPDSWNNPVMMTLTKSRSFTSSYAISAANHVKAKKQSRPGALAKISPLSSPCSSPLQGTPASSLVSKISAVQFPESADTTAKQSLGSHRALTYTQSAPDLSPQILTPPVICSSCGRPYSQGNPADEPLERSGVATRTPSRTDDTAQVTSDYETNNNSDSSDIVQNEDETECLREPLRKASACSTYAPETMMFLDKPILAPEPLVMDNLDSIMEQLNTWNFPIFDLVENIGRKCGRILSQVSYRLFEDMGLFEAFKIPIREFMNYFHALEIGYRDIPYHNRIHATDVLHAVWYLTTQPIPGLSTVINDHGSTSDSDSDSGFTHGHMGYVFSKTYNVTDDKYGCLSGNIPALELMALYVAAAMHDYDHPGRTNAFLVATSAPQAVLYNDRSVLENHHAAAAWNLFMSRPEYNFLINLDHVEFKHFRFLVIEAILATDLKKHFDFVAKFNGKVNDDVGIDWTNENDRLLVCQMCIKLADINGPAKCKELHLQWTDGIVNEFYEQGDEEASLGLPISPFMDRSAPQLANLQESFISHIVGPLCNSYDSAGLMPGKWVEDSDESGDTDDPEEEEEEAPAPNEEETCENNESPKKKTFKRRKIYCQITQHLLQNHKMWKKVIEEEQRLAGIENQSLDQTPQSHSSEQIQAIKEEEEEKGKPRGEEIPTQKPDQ
For another assay, the target named is T3, Progesterone receptor (Homo sapiens, UniProt P06401).
T3 sequence (P06401 whole entry): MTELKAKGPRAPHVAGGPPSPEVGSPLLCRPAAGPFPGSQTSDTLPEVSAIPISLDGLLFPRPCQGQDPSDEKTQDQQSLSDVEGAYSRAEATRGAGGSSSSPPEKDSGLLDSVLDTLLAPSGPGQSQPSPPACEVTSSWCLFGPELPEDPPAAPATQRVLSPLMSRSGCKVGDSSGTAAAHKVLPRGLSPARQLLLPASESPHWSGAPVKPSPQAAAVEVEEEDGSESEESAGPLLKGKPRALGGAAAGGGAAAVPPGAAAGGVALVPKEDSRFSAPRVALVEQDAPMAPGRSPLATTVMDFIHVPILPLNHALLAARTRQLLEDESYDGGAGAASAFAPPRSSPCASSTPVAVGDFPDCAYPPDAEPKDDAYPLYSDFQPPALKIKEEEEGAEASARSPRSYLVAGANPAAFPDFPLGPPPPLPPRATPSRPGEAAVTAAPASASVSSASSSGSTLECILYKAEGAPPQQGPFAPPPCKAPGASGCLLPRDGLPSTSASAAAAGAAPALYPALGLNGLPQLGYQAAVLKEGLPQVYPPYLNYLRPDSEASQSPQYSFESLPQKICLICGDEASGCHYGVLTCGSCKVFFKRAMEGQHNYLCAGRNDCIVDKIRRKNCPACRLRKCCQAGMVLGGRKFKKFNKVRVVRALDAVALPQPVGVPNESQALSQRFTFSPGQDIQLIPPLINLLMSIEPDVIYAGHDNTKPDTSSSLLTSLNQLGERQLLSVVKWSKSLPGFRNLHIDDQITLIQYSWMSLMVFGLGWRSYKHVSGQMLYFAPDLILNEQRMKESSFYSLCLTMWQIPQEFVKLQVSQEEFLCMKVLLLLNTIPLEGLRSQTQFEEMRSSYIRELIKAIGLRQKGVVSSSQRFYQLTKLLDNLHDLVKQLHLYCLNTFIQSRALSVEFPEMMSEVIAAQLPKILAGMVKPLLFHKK

Assay [5] addresses Prostaglandin G/H synthase 1 (Homo sapiens, UniProt P23219). The format is functional.
Assay [6] deals with Sodium-dependent noradrenaline transporter (Homo sapiens, UniProt P23975).
Sodium-dependent noradrenaline transporter, sequence (P23975 whole entry): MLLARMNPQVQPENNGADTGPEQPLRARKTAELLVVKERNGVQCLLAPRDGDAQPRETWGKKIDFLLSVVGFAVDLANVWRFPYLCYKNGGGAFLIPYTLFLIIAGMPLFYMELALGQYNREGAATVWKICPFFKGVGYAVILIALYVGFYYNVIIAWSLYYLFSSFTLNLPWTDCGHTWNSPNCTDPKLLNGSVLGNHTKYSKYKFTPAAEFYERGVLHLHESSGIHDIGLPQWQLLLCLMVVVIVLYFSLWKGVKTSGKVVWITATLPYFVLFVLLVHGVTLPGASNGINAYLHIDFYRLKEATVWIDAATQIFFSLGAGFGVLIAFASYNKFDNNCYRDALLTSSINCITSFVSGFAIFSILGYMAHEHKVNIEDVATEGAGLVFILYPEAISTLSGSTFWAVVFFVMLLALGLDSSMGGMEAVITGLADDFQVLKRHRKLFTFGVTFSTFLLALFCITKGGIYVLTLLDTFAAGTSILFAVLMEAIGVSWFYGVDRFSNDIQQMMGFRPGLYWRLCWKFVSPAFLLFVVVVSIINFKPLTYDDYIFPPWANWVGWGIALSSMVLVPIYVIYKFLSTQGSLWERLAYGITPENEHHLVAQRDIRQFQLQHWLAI
The target of assay [7] is Sodium-dependent dopamine transporter (Homo sapiens, UniProt Q01959).
Assay [8] deals with Sodium-dependent serotonin transporter (Homo sapiens, UniProt P31645).
Sodium-dependent serotonin transporter, sequence (P31645 whole entry): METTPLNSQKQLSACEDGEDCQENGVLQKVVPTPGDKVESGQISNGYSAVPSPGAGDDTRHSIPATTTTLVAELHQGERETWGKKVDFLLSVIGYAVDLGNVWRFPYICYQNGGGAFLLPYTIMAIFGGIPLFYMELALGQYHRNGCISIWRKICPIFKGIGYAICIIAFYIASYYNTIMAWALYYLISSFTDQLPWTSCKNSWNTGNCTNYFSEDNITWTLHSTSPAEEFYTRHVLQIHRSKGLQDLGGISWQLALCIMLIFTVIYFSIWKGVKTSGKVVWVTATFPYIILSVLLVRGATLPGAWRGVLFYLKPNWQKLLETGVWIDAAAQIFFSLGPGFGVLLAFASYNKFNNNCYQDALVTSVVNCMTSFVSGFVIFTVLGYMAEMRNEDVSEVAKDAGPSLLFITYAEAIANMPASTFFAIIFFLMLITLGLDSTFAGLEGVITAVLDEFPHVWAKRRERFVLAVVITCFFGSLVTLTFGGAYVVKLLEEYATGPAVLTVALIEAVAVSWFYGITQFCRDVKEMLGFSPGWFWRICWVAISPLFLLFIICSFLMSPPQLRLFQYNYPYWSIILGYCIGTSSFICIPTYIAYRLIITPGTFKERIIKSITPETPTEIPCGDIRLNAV
The target in another assay is T4, Thromboxane A2 receptor (Homo sapiens, UniProt P21731).
T4 sequence (P21731 whole entry): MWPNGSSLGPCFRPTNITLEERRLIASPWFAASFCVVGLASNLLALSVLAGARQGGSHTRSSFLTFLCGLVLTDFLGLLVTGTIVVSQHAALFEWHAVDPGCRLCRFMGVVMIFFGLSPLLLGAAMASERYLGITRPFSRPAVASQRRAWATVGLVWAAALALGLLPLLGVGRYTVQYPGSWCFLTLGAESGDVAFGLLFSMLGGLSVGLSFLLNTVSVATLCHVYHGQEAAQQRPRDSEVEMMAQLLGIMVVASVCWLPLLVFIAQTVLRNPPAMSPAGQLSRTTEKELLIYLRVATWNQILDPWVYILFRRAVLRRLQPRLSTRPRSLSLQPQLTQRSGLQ
The format is functional, cell-based.
Note: assay procedure not described here.

Prostaglandin G/H synthase 1, sequence (P23219 whole entry): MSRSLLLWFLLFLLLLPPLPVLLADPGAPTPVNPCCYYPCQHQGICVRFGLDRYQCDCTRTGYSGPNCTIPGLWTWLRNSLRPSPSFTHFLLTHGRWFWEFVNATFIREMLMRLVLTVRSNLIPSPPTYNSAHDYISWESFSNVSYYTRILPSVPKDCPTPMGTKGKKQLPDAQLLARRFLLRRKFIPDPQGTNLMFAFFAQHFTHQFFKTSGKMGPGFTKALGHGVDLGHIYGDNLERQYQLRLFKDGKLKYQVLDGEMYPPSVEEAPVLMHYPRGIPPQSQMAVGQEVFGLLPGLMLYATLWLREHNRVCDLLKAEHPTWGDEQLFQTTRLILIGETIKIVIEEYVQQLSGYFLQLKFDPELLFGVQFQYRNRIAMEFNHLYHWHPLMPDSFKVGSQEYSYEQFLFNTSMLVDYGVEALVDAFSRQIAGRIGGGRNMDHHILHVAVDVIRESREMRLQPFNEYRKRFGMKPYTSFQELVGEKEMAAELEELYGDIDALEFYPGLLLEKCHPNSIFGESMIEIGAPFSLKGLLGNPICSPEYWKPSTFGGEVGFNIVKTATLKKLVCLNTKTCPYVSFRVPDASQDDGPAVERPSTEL
Acetylcholinesterase, sequence (P22303 whole entry): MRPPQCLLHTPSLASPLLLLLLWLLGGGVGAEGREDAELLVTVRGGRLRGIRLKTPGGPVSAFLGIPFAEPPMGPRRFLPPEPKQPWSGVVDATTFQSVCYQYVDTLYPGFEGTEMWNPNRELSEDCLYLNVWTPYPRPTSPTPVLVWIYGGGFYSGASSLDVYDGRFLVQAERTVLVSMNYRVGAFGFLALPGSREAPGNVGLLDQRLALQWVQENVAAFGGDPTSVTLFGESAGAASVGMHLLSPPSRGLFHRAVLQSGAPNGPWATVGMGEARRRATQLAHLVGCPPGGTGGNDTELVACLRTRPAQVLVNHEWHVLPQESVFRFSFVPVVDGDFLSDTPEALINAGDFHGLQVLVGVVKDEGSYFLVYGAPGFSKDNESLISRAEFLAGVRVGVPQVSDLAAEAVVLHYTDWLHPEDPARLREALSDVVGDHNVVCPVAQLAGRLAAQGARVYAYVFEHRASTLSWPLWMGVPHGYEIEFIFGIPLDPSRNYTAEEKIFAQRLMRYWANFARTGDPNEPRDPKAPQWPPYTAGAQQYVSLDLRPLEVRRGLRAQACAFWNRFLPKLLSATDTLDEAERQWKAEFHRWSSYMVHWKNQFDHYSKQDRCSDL

As for `CCN(CC)CCOC(=O)C(Cc1cccc2ccccc12)CC1CCCO1` (stereo not drawn) [NAFRONYL], the AC50 at Acetylcholinesterase was more than 30 µM; in [1], more than 30 µM; in assay [2], 0.199 µM; in [3] it was 6.9 µM; in assay [4] it was more than 30 µM; on Progesterone receptor it was more than 30 µM. Further, the AC50 in assay [5] was more than 30 µM; in assay [6] it was more than 30 µM; in assay [7] it was more than 30 µM; in assay [8], 28.4 µM; on Thromboxane A2 receptor, more than 30 µM.

`c1ccc2c(CC3=NCCN3)cccc2c1` [NAPHAZOLINE]: the AC50 at Acetylcholinesterase was more than 30 µM; in assay [1], 0.022 µM; in assay [2], more than 30 µM; in [3], more than 30 µM; in [4], more than 30 µM; at Progesterone receptor, more than 30 µM. Also, the concentration at half-maximal activity (AC50) (in [5]; in assay [6]; in assay [7]; in assay [8]; on Thromboxane A2 receptor) was more than 30 µM throughout.

In the case of `N[C@@H](Cc1c[nH]c2ccc(O)cc12)C(=O)O` [OXITRIPTAN], the concentration at half-maximal activity (AC50) (at Acetylcholinesterase; in assay [1]; in [2]; in assay [3]; in assay [4]; on Progesterone receptor) was more than 30 µM throughout. Besides, the AC50 was more than 30 µM in [5]; more than 30 µM in assay [6]; more than 30 µM in [7]; 15.5 µM in assay [8]; more than 30 µM at Thromboxane A2 receptor.

Take `C1CNCCN1` [PIPERAZINE]: the half-maximal activity concentration (AC50) (on Acetylcholinesterase; in assay [1]; in assay [2]; in [3]; in assay [4]; at Progesterone receptor) was more than 30 µM throughout. Also, the AC50 (in assay [5]; in assay [6]; in assay [7]; in [8]; at Thromboxane A2 receptor) was more than 30 µM in each case.

Regarding `CCCC(=O)O[C@H]1[C@H](C)O[C@@H](O[C@H]2[C@H](N(C)C)[C@@H](O)[C@H](O[C@H]3[C@@H](CC=O)C[C@@H](C)[C@@H](O)/C=C/C=C/C[C@@H](C)OC(=O)C[C@@H](O)[C@@H]3OC)O[C@@H]2C)C[C@@]1(C)OC(=O)CC` [ROKITAMYCIN], the half-maximal activity concentration (AC50) was more than 30 µM at Acetylcholinesterase; more than 30 µM in assay [1]; more than 30 µM in [2]; more than 30 µM in assay [3]; more than 10 µM in [4]; more than 30 µM on Progesterone receptor. Moreover, the AC50 (in assay [5]; in assay [6]; in assay [7]; in [8]; on Thromboxane A2 receptor) was more than 30 µM in each case.

Take `CCCCCCCCCCCCCCCCCC(=O)NCCCC[C@H](NC(=O)CC[C@@H](NC(=O)[C@H](C)NC(=O)[C@@H](C)O[C@H]1[C@H](O)[C@@H](CO)OC(O)[C@@H]1NC(C)=O)C(N)=O)C(=O)O` (stereo partly drawn) [ROMURTIDE]: the AC50 at Acetylcholinesterase is more than 30 µM; in assay [1] it was more than 30 µM; in assay [2], more than 30 µM; in assay [3] it was 26 µM; in assay [4], more than 30 µM; on Progesterone receptor, 2.94 µM. In addition, the AC50 in assay [5] is more than 30 µM; in [6] it was more than 30 µM; in assay [7] it was more than 30 µM; in assay [8], more than 30 µM; on Thromboxane A2 receptor, more than 3 µM.

For the compound `COc1cc([C@@H]2c3cc4c(cc3[C@@H](O[C@@H]3O[C@@H]5CO[C@@H](c6cccs6)O[C@H]5[C@H](O)[C@H]3O)[C@H]3COC(=O)[C@H]23)OCO4)cc(OC)c1O` [TENIPOSIDE], the half-maximal activity concentration (AC50) on Acetylcholinesterase is more than 30 µM; in assay [1], more than 30 µM; in [2], more than 30 µM; in assay [3], more than 30 µM; in assay [4] it was more than 3 µM; at Progesterone receptor, more than 30 µM. For the same compound, the AC50 (in [5]; in assay [6]; in assay [7]; in [8]; on Thromboxane A2 receptor) was more than 30 µM each time.

For `CCSc1ccc2c(c1)N(CCCN1CCN(C)CC1)c1ccccc1S2` [THIETHYLPERAZINE], the AC50 was more than 30 µM on Acetylcholinesterase; 0.211 µM in [1]; 2.24 µM in assay [2]; 1.2 µM in assay [3]; more than 30 µM in assay [4]; 24.4 µM on Progesterone receptor. Moreover, the AC50 in [5] was determined as 26.5 µM; in assay [6], 1.65 µM; in assay [7], 3.87 µM; in assay [8] it was 4.88 µM; at Thromboxane A2 receptor, 3.98 µM.

Source of the values: ChEMBL document CHEMBL5291721, “A preclinical secondary pharmacology resource illuminates target-adverse drug reaction associations of marketed drugs” (Nat Commun, 2023).
